In PubChem BioAssay (NCI):
“And” between values parts separate entries of the source, which are not always exact repeats. Identical values can stand only once.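 Each compound was tested at five concentrations against cells in 96-well plates for 48 hours. GI50 = concentration required for 50% inhibition of growth. TGI is the concentration that stops growth completely.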

Key:
Test in all cases: inhibition of tumour cell growth, NCI panel, 48 h
BT-549 breast = tested on: BT-549 breast
CCRF-CEM leukemia = tested on: CCRF-CEM leukemia
HOP-62 NSCLC = tested on: HOP-62 NSCLC
MCF7 breast = tested on: MCF7 breast
MDA-MB-435 = tested on: MDA-MB-435
NCI-H226 lung = tested on: NCI-H226 lung
NCI-H522 lung = tested on: NCI-H522 lung
SF-539 CNS = tested on: SF-539 CNS
T-47D breast = tested on: T-47D breast
UO-31 renal = tested on: UO-31 renal

Compound | TGI (BT-549 breast) [µM] | TGI (CCRF-CEM leukemia) | TGI (HOP-62 NSCLC) | TGI (MCF7 breast) | TGI (MDA-MB-435) [µM] | TGI (NCI-H226 lung) | TGI (NCI-H522 lung) | TGI (SF-539 CNS) | TGI (T-47D breast) [µM] | TGI (UO-31 renal) | GI50 (NCI-H226 lung) [µM] | GI50 (CCRF-CEM leukemia) [µM] | GI50 (MCF7 breast) [µM] | GI50 (NCI-H522 lung) [µM] | GI50 (UO-31 renal) [µM]
C=C1C(=O)O[C@@H]2/C=C(\C)CC/C=C(\C)CC[C@@]12O | 7.81 | 0.607 µM | 15.6 µM | 14.5 µM | 7.29 | 59.2 µM | 1.38 µM | 3.39 µM | 3.33 | 2.86 µM |  |  |  |  | 
COC(=O)C1=C(C)N2CCSC2(C)C(C(=O)OC)C1c1cccc(Cl)c1 (stereo not drawn) |  | 69.5 µM | 38.2 µM |  |  | 47.4 µM |  | 24.9 µM |  | 38.3 µM |  |  |  |  | 
CC[C@@]1(O)C(=O)OCc2c1cc1n(c2=O)Cc2cc3ccccc3nc2-1 | 2.6 | 0.0159 µM | 0.132 µM | 0.203 µM | 0.285 | 0.177 µM | 0.596 µM | 0.0591 µM | 0.635 | 0.234 µM | 0.0202 |  |  |  | 
CCN1c2cc(Br)cc3[nH]c(=O)n(c23)CCC1C (stereo not drawn) | 31.2 | > 100 µM | 37.2 µM | 54.5 µM | 16.8 | 37.8 µM |  | > 100 µM | 59.9 | 37.7 µM |  |  |  |  | 
Clc1cc(Cl)c2cc3cccc[n+]3cc2c1Cl | 23.3 | 37.2 µM | 31.6 µM | 31.9 µM | 32.7 | 43.6 µM |  | 32.4 µM | 23.9 | 28.4 µM |  |  |  |  | 
CNC1Cc2c[nH]c3cccc(c23)C12C=C(C)C(=O)O2 (stereo not drawn) | > 100 | > 100 µM | > 100 µM | > 100 µM | > 100 | > 100 µM | > 100 µM | > 100 µM | > 100 | > 100 µM |  |  |  |  | 
Nc1ccc(O)c2c1C(=O)c1c(N)ccc(O)c1C2=O |  | > 100 µM | > 100 µM |  |  |  | > 100 µM | > 100 µM |  | > 100 µM |  |  |  |  | 
Nc1[nH]c(=S)nc2nc3c(c(-c4ccccc4)c12)CCCC3 | > 100 |  | > 100 µM | > 100 µM | > 100 |  |  | > 100 µM | > 100 | > 100 µM |  |  |  |  | 
CC(C)(C)OC(=O)N1C(OP(=O)(Oc2ccccc2)Oc2ccccc2)=CSc2ccccc21 | > 100 |  | > 100 µM | > 100 µM | > 100 | > 100 µM | > 100 µM | > 100 µM | > 100 | > 100 µM |  |  |  |  | 
CC(C)(C)c1ccc2c(c1)C#Cc1cc(C(C)(C)C)ccc1OCCCO2 | > 100 | > 100 µM | > 100 µM | > 100 µM | > 100 | > 100 µM | > 100 µM |  | > 100 | > 100 µM |  |  |  |  | 
COc1cc(/C=C2\N=C(c3ccccc3)N(c3ccc(C(=O)c4ccccc4)cc3N3C(=O)/C(=C/c4ccc(O)c(OC)c4)N=C3c3ccccc3)C2=O)ccc1O | > 100 | > 100 µM | 48.9 µM | 20.2 µM | 8.16 |  |  | 17.2 µM | 27.3 | 27.6 µM |  |  |  |  | 
NC(CCOCCP(=O)(O)CCC1C=CC=CC1)C(=O)O (stereo not drawn) | > 100 | > 100 µM |  | > 100 µM | > 100 |  | > 100 µM | > 100 µM | > 100 | > 100 µM |  |  |  |  | 
CCN(CC)CC[n+]1ccc2c(C)c3[nH]c4ccc(O)cc4c3c(C)c2c1 | 34.3 | 33 µM and 23.1 µM | 13.4 µM and 18.9 µM | 34.5 µM and 80.6 µM | 23.1 | 6.64 µM and 3.58 µM | 10.7 µM and 8.66 µM | 19 µM and 31.8 µM | 12.3 | > 96.1 µM and 150 µM | 0.631 | 0.808 | 1.74 | 1.56 | 20.6
OCC(O)CNc1ncnc2ccccc12 (stereo not drawn) | > 100 | > 100 µM | > 100 µM | > 100 µM | > 100 | > 100 µM | > 100 µM |  | > 100 | > 100 µM |  |  |  |  | 
CCOC(=O)CCC(C(=O)OCC)n1nc2ccc(Nc3c(C)[n+]([O-])c4cc(F)c(OCC)cc4[n+]3[O-])cc2n1 (stereo not drawn) | > 100 | > 100 µM | 40.8 µM | > 100 µM | > 100 | > 100 µM | > 100 µM | 63.1 µM | > 100 | > 100 µM |  |  |  |  | 
COc1cc(/C=N/c2nc3cc4sc(/N=C/c5cc(OC)c(OC)c(OC)c5)nc4cc3s2)cc(OC)c1OC | > 100 |  | > 100 µM | > 100 µM | > 100 | > 100 µM | > 100 µM | 40.8 µM | > 100 | > 100 µM |  |  |  |  | 
